Assay results published in publication PMC9942948 (Journal of medicinal chemistry, 2022).

How the values were obtained:
WT Polθ = WT Polθ (Homo sapiens, UniProt O75417); experiment: Differential Scanning Fluorimetry; assay type: binding; conditions: compound alone, no DNA
[1] = Metabolite identification in human microsomes; assay type: in vitro ADME
[2] = Mouse liver microsomal stability; assay type: in vitro ADME; conditions: liver microsomes
[3] = Metabolite identification in mouse microsomes; assay type: in vitro ADME
Pol μ = Pol μ (Homo sapiens, UniProt Q9NP87); experiment: DNA polymerase selectivity, Pol μ
[4] = PK on days 1 and 7 of BID oral dosing in CD-1 nude mice; assay type: in vivo; conditions: Day 7 vs Day 1, BID oral
[5] = test system: HCT116 BRCA2+/+ xenograft tumors; experiment: HCT116 BRCA2+/+ xenograft efficacy; assay type: in vivo, mouse; conditions: 80 mg/kg BID PO, 21 days
Pol λ = target: T1, Pol λ (Homo sapiens, UniProt Q9UGP5); experiment: DNA polymerase selectivity, Pol λ
T1 sequence (Q9UGP5 1-575): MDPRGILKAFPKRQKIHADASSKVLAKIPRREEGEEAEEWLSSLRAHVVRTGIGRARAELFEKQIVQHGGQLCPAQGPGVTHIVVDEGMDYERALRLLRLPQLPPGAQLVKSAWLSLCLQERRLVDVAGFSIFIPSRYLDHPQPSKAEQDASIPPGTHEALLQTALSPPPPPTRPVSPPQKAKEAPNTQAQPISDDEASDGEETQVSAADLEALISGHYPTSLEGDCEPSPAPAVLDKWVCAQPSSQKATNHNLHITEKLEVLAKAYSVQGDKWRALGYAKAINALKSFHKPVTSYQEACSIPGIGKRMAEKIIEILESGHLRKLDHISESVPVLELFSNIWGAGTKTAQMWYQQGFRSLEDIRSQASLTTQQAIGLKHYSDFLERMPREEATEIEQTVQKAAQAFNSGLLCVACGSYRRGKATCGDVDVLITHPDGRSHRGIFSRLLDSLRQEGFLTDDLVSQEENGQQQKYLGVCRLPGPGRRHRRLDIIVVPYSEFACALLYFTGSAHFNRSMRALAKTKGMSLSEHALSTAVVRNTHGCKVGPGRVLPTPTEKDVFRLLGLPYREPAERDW

[6] = target: full-length Polθ (aa 1–2590), ATPase activity (Homo sapiens, UniProt O75417); experiment: Full-length Polθ ATPase activity; assay type: biochemical
[7] = test system: HCT116 BRCA2−/− xenograft tumors; experiment: HCT116 BRCA2−/− xenograft efficacy; assay type: in vivo, mouse; conditions: 80 mg/kg BID PO, BRCA2-deficient HCT116
in vitro = in vitro ADME, canine; conditions: dog, MDCK
[8] = test system: HCT116 BRCA2−/− xenograft tumor cells; experiment: PD markers by immunofluorescence in cells isolated from tumors; assay type: in vivo, mouse
[9] = test system: Polθ-mediated MMEJ repair at AAVS1 locus in HCT116 WT cells; experiment: Cas9-induced double-strand DNA break assay; assay type: cell-based; conditions: Homo sapiens, HCT-116, read-out: potency in DSB repair of AAVS1 loci
[10] = Tolerability in the xenograft study; assay type: in vivo
[11] = test system: MMEJ in 293T-Lig4−/−TLR1.1 cells; experiment: Traffic-light reporter assay; assay type: cell-based, human; conditions: HEK293 LIG4−/− cell line
Pol ε = Pol ε (Homo sapiens, UniProt Q07864); experiment: DNA polymerase selectivity, Pol ε
[12] = Mouse PK, iv/po in CD1 mice; assay type: in vivo; conditions: female, whole blood, 2.5 mg/kg
[13] = nude mice, 80 mg/kg BID PO, 21 days

Pol ε, sequence (Q07864 whole entry): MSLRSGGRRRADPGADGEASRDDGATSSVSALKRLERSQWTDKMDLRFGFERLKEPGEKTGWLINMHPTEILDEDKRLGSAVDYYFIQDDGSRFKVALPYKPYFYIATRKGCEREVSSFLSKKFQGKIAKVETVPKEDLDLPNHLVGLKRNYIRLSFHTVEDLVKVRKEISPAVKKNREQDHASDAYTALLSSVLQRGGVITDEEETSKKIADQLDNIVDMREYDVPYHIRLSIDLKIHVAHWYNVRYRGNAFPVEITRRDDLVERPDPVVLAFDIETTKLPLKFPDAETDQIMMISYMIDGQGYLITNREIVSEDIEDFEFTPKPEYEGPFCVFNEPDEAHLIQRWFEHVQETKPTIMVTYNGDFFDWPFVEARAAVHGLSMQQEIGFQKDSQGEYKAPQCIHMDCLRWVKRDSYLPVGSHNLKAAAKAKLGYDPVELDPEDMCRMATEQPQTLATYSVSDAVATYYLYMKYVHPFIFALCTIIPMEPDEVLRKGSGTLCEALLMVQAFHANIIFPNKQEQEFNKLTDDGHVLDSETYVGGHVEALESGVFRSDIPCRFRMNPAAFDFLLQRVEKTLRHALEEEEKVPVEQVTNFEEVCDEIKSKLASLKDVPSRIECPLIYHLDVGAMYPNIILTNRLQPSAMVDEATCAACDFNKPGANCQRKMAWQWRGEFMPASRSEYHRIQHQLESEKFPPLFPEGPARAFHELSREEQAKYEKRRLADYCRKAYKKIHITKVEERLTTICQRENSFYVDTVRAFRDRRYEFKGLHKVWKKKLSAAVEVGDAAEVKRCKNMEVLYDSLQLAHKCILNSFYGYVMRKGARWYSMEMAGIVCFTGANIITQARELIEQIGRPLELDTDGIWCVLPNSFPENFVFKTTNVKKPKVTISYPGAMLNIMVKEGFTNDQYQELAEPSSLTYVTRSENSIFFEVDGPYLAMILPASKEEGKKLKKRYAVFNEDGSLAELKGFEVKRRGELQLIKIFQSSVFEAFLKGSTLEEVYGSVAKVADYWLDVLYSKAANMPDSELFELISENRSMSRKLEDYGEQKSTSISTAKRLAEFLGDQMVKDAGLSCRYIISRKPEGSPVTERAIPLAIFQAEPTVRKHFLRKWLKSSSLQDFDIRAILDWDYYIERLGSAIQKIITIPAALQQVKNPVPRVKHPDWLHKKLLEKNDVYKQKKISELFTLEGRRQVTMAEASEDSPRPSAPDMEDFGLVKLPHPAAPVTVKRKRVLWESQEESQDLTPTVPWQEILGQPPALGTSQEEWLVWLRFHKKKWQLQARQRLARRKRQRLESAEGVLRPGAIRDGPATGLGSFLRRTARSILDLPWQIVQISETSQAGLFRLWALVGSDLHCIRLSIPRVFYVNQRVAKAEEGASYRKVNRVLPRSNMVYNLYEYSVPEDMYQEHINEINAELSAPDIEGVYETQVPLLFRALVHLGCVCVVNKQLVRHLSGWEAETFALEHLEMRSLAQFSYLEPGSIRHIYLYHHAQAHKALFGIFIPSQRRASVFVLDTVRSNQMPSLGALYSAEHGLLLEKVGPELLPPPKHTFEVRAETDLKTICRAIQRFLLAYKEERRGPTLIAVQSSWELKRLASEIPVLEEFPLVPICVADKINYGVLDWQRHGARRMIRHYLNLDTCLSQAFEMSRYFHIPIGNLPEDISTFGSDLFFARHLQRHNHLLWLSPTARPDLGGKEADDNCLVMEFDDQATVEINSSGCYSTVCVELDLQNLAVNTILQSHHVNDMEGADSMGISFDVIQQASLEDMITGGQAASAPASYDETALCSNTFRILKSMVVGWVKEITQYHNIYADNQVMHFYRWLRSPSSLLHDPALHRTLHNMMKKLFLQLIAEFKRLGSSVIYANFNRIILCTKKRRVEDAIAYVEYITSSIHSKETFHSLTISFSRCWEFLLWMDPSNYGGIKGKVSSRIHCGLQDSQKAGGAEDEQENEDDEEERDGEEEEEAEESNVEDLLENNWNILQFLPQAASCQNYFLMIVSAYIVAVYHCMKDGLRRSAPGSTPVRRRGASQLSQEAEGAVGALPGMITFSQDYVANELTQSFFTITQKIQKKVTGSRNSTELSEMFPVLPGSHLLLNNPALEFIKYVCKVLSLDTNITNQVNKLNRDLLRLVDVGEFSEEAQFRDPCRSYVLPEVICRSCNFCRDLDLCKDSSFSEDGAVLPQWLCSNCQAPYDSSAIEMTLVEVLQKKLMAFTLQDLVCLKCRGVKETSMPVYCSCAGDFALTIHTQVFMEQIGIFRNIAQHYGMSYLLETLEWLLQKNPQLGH
WT Polθ, sequence (O75417 whole entry): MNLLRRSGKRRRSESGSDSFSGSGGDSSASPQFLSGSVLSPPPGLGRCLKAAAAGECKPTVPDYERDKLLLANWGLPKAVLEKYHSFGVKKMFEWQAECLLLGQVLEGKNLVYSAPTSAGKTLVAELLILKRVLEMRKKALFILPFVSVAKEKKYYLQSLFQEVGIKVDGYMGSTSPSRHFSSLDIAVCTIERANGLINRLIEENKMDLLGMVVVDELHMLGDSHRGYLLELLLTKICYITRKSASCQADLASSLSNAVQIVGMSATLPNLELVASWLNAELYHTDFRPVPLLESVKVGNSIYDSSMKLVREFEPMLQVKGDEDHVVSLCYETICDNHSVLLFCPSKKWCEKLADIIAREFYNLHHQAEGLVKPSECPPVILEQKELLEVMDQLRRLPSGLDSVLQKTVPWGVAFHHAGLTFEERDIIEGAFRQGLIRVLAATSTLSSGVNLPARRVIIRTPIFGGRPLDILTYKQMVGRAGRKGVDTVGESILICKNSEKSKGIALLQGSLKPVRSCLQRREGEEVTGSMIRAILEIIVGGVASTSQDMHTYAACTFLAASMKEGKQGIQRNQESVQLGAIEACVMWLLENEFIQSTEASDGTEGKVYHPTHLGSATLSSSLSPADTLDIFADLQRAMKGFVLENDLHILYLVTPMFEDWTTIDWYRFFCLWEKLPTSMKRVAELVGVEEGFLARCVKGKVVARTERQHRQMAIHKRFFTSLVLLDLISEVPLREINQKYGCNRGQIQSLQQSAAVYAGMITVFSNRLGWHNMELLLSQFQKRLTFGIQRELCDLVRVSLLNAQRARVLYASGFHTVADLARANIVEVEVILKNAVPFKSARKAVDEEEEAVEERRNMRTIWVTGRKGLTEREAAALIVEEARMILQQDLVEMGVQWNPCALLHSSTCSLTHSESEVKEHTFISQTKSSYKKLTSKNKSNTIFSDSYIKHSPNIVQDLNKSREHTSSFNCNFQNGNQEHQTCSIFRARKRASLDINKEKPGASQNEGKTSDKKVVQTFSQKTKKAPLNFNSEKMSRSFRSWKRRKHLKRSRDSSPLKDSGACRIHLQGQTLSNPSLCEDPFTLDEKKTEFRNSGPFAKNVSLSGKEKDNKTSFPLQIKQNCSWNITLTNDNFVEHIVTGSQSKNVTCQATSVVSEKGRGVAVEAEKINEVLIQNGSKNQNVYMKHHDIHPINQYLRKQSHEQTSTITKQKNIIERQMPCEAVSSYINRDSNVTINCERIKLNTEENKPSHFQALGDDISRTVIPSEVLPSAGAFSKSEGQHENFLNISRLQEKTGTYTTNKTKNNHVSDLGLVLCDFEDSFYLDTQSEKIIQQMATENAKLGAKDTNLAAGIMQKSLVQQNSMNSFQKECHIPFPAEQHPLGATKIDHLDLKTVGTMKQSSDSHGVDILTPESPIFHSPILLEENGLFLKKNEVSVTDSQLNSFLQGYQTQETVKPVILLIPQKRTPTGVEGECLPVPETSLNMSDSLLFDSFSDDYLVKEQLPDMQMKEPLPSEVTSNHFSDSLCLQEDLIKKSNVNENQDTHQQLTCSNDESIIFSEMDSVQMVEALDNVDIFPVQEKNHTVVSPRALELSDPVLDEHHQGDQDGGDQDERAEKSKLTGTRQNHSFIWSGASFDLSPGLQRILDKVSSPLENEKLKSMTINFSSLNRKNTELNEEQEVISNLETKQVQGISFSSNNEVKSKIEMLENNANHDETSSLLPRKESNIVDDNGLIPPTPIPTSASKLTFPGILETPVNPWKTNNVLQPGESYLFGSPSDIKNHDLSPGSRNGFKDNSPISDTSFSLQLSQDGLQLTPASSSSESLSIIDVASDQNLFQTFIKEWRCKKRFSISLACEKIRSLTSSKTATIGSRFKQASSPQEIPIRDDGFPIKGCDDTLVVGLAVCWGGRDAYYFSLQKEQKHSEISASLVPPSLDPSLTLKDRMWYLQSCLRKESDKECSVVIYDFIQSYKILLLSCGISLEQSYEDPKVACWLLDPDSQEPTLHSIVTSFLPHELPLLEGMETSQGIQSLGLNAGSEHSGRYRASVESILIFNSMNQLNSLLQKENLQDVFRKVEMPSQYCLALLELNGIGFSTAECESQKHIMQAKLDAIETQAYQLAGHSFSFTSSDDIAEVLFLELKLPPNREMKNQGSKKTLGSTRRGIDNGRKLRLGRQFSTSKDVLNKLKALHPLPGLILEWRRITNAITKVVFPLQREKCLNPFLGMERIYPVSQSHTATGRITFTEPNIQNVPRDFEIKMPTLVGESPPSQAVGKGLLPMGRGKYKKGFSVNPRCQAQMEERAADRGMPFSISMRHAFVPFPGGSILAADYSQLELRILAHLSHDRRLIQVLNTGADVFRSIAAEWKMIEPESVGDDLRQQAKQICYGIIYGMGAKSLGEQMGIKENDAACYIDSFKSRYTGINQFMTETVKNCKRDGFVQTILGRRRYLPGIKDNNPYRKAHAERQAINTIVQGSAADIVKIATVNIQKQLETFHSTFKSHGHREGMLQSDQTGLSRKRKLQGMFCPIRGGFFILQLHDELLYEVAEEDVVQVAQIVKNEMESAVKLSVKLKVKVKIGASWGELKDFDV
full-length Polθ (aa 1–2590), ATPase activity, sequence (O75417 whole entry, the tested form may be a part): as the sequence (O75417 whole entry) above

## CC1CCc2nn(CC(=O)N(C)c3ccccc3)c(C(F)(F)F)c21 (stereo not drawn) [Compound 9]
WT Polθ
  thermal stabilization of WT Polθ: did not show any thermal stabilization

## CN(C(=S)Cn1nc2c(c1C(F)(F)F)CCC2)c1ccccc1 [Compound 14]
WT Polθ
  thermal stabilization of WT Polθ: did not show any thermal stabilization

## CN(C(=O)Cc1ccc(C(F)(F)F)cc1C(F)(F)F)c1ccccc1 [Compound 15]
[1]
  major routes of metabolism: N-demethylation and hydroxylation of the phenyl ring
[2]
  microsomal CLint: > 555 µL/min/mg
[3]
  major routes of metabolism: N-demethylation and hydroxylation of the phenyl ring

## Nc1ccc(C#CCN(C(=O)Cc2ncc(C(F)(F)F)cc2C(F)(F)F)c2ccc(F)cc2)nn1 [RP-6685, N-[3-(6-Aminopyridazin-3-yl)prop-2-ynyl]-2-[3,5-bis(trifluoromethyl)-2-pyridyl]-N-(4-fluorophenyl)acetamide]
Pol μ
  activity on Pol μ: inactive
[4]
  decline of exposure over the week of dosing: 55 – 67%
[5]
  tumor growth inhibition: no tumor growth inhibition
Pol λ
  activity on Pol λ: inactive
[6]
  activity on the ATPase activity of full-length Polθ: inactive
[7]
  difference to vehicle by Day 21: not statistically significant
In vitro
  Papp: 6.2 ×10⁻⁶ cm/s
[8]
  PD markers micronuclei and γH2AX: modest trend towards increased micronuclei and γH2AX
[9]
  IC50: 500 nM
[10]; female, CD1 Nude, mouse, in vivo, po, 80 mg/kg BID
  MTD at 21 days: 80 mg/kg
[10]; [13]
  body weight change: no significant body weight loss
  tolerability: well tolerated
[11]
  effect on MMEJ in TLR assay: dose-dependent decrease in MMEJ
Pol ε
  IC50: > 100000 nM
  activity on Pol ε: inactive
[12]
  clearance: 36.8 mL/min/kg
